# Source: paper PMC9161374 (Science Translational Medicine, 2022)
# Where “and” joins values, the source holds several entries; their conditions need not be identical. Identical values can stand only once. Like-named read-outs stand apart in the source and are kept apart here.
# What was measured:
# [1] = CCK-8 cell viability assay; type: cell-based, African green monkey; conditions: African green monkey; Vero E6 cells, 48 h, CCK8
# Method in brief: (§1)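 Vero E6 cells, 20,000/well, exposed to compound at 0–200 μM (0, 0.01, 0.1, 1, 5, 10, 50, 75, 100, 200 μM) for 48 h; viability read by CCK-8 and expressed as percentage versus drug concentration, mean ± SD.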
# [2] = tested on: Vero E6 cells; assay: CCK-8 cell viability assay; type: cell-based, African green monkey; conditions: individual replicate values, Fig.S4
# Method in brief: as §1
# [3] = tested on: SARS-CoV-2 (B.1); assay: Anti-SARS-CoV-2 activity in Vero E6 cells (viral yield by qRT-PCR); type: cell-based
# [4] = tested on: SARS-CoV-2 (Omicron, B.1.1.529); conditions: Omicon, Vero E6, replicates
# [5] = tested on: SARS-CoV-2 (Delta, B.1.617.2); assay: microbe, parasite or virus in culture; type: cell-based; conditions: for % Inhibition: delta
# [6] = Permeability and efflux ratio in Caco-2 cells; type: in vitro ADME; conditions: human
# Source text: ATV019, and ATV020 in Caco-2 cells.
# Compound Caco-2 AB/BA (Papp (10-6 cm/s)) a Efflux ratio
# [7] = tested on: SARS-CoV-2 (B.1) in Huh7 cells; assay: Anti-SARS-CoV-2 activity in Huh7 cells (viral yield by qRT-PCR); type: cell-based; conditions: B.1, MOI 0.05, 48 h
# [8] = tested on: SARS-CoV-2 replicon system (pBAC-SARS-CoV-2-Replicon-Luc); assay: microbe, parasite or virus in culture; type: cell-based; conditions: Severe acute respiratory syndrome coronavirus 2, HEK-293T, 60 h
# [9] = tested on: SARS-CoV-2 (Beta, B.1.351); assay: microbe, parasite or virus in culture; type: cell-based; conditions: for EC50: read-out: EC50 in Vero E6 cells, SARS-CoV-2 (Beta, B.1.351); for % Inhibition: beta
compound,measurement,setting,value
"N#C[C@@]1(c2ccc3c(N)ncnn23)O[C@H](CO)[C@@H](O)[C@H]1O [GS-441524, reference compound]",CC50 at 48 h,[1],> 50000 nM
same,cell viability (% of control),"[2]; 0.1 μM compound, 0.1 µM",105.342 % of control
same,cell viability (% of control),"[2]; 1 μM compound, 1 µM",107.061 % of control and 113.737 % of control
same,cell viability (% of control),"[2]; 2 μM compound, 2 µM",117.342 % of control and 112.354 % of control and 107.242 % of control
same,cell viability (% of control),"[2]; 5 μM compound, 5 µM",121.028 % of control and 116.731 % of control
same,cell viability (% of control),"[2]; 10 μM compound, 10 µM",98.5418 % of control and 94.9348 % of control and 94.7813 % of control
same,cell viability (% of control),"[2]; 20 μM compound, 20 µM",98.3543 % of control and 95.3243 % of control and 95.3532 % of control
same,cell viability (% of control),"[2]; 50 μM compound, 50 µM",93.3231 % of control and 94.7045 % of control and 94.3208 % of control
same,% Inhibition,"[3]; 2 μM, replicates, sheet Fig.S3",71.478%
same,% Inhibition,"[3]; 5 μM, replicates, sheet Fig.S3",85.4877%
same,% Inhibition,"[3]; 10 μM, replicates, sheet Fig.S3",86.8803%
same,% Inhibition,"[3]; B.1, 1 uM, Vero E6, replicates, 1 µM",3.349%
same,% Inhibition,"[3]; B.1, 2 uM, Vero E6, replicates, 2 µM",80.3269%
same,% Inhibition,"[3]; B.1, 5 uM, Vero E6, replicates, 5 µM",96.5344%
same,% Inhibition,"[3]; B.1, 10 uM, Vero E6, replicates, 10 µM",98.7837%
same,% Inhibition,"[3]; B.1, 50 uM, Vero E6, replicates, 50 µM",98.8136%
same,inhibition at 0.1 µM,"[3]; Severe acute respiratory syndrome coronavirus 2, Vero C1008, 0.1 μM, replicates, sheet Fig.S3",0%
same,inhibition at 0.5 µM,"[3]; Severe acute respiratory syndrome coronavirus 2, Vero C1008, 0.5 μM, replicates, sheet Fig.S3",0%
same,inhibition at 1 µM,"[3]; Severe acute respiratory syndrome coronavirus 2, Vero C1008, 1 μM, replicates, sheet Fig.S3",0%
same,inhibition at 2 µM,"[3]; Severe acute respiratory syndrome coronavirus 2, Vero C1008, 2 μM, replicates, sheet Fig.S3",72.7%
same,inhibition at 5 µM,"[3]; Severe acute respiratory syndrome coronavirus 2, Vero C1008, 5 μM, replicates, sheet Fig.S3",85.9%
same,inhibition at 10 µM,"[3]; Severe acute respiratory syndrome coronavirus 2, Vero C1008, 10 μM, replicates, sheet Fig.S3",90.7%
same,inhibition at 0.01 µM,"[3]; Severe acute respiratory syndrome coronavirus 2, Vero C1008, B.1, 0.01 uM, Vero E6, replicates",0%
same,inhibition at 0.1 µM,"[3]; Severe acute respiratory syndrome coronavirus 2, Vero C1008, B.1, 0.1 uM, Vero E6, replicates",0%
same,inhibition at 0.25 µM,"[3]; Severe acute respiratory syndrome coronavirus 2, Vero C1008, B.1, 0.25 uM, Vero E6, replicates",0%
same,inhibition at 0.5 µM,"[3]; Severe acute respiratory syndrome coronavirus 2, Vero C1008, B.1, 0.5 uM, Vero E6, replicates",0%
same,inhibition at 2 µM,"[3]; Severe acute respiratory syndrome coronavirus 2, Vero C1008, B.1, 2 uM, Vero E6, replicates",72.6%
same,inhibition at 5 µM,"[3]; Severe acute respiratory syndrome coronavirus 2, Vero C1008, B.1, 5 uM, Vero E6, replicates",95.7%
same,inhibition at 10 µM,"[3]; Severe acute respiratory syndrome coronavirus 2, Vero C1008, B.1, 10 uM, Vero E6, replicates",98.5%
same,inhibition at 50 µM,"[3]; Severe acute respiratory syndrome coronavirus 2, Vero C1008, B.1, 50 uM, Vero E6, replicates",98.7%
same,EC90,"[3]; Severe acute respiratory syndrome coronavirus 2, Vero C1008, read-out: EC90 (Confidence 95%)",2390 nM
same,EC50,"[3]; Severe acute respiratory syndrome coronavirus 2, Vero C1008, MOI 0.05, 48 h",1710 nM
same,% Inhibition,[4]; 0.208 uM,55.9865% and 27.3736% and 80.8013%
same,% Inhibition,[4]; 0.625 uM,98.5871% and 97.6862%
same,% Inhibition,[4]; 2.5 uM,99.9728% and 99.9712%
same,% Inhibition,[4]; 5 uM,99.9879% and 99.9871%
same,% Inhibition,[4]; 10 uM,99.9637% and 99.9769%
same,EC50,"[5]; Severe acute respiratory syndrome coronavirus 2, Vero C1008, 48 h, read-out: EC50 in Vero E6 cells, SARS-CoV-2 (Delta, B.1.617.2)",957 nM
same,inhibition at 0.01 µM,"[5]; Severe acute respiratory syndrome coronavirus 2, Vero C1008, delta, 0.01 uM, Vero E6, replicates",0%
same,inhibition at 0.1 µM,"[5]; Severe acute respiratory syndrome coronavirus 2, Vero C1008, delta, 0.1 uM, Vero E6, replicates",0%
same,inhibition at 0.25 µM,"[5]; Severe acute respiratory syndrome coronavirus 2, Vero C1008, delta, 0.25 uM, Vero E6, replicates",0%
same,inhibition at 0.5 µM,"[5]; Severe acute respiratory syndrome coronavirus 2, Vero C1008, delta, 0.5 uM, Vero E6, replicates",0%
same,inhibition at 2 µM,"[5]; Severe acute respiratory syndrome coronavirus 2, Vero C1008, delta, 2 uM, Vero E6, replicates",94.9%
same,inhibition at 5 µM,"[5]; Severe acute respiratory syndrome coronavirus 2, Vero C1008, delta, 5 uM, Vero E6, replicates",97%
same,inhibition at 10 µM,"[5]; Severe acute respiratory syndrome coronavirus 2, Vero C1008, delta, 10 uM, Vero E6, replicates",98.7%
same,inhibition at 50 µM,"[5]; Severe acute respiratory syndrome coronavirus 2, Vero C1008, delta, 50 uM, Vero E6, replicates",99.8%
same,EC90,"[5]; Severe acute respiratory syndrome coronavirus 2, Vero C1008, read-out: EC90 (Confidence 95%), Vero-E6, Delta B.1.617.2",1360 nM
same,% Inhibition,"[5]; 1 uM, Vero E6, replicates",66.6762% and 46.4634%
same,% Inhibition,"[5]; 2 uM, Vero E6, replicates",93.4361%
same,% Inhibition,"[5]; 5 uM, Vero E6, replicates",94.7905%
same,% Inhibition,"[5]; 10 uM, Vero E6, replicates",95.0345%
same,% Inhibition,"[5]; 50 uM, Vero E6, replicates",98.9856%
same,Papp A→B,[6]; AB,1.22 ×10⁻⁶ cm/s
same,Papp B→A,[6]; BA,1.2 ×10⁻⁶ cm/s
same,EC50,"[7]; Severe acute respiratory syndrome coronavirus 2, Huh-7, read-out: EC50 (Confidence 95%) in Huh7 cells",1760 nM
same,EC90,"[7]; Severe acute respiratory syndrome coronavirus 2, Huh-7, read-out: EC90 (Confidence 95%) in Huh7 cells",2080 nM
same,EC50,"[8]; read-out: EC50 (Confidence 95%), replicon",955 nM
same,EC90,"[8]; read-out: EC90 (Confidence 95%), replicon",3250 nM
same,EC50,"[9]; Severe acute respiratory syndrome coronavirus 2, Vero C1008, 48 h",1340 nM
same,inhibition at 0.01 µM,"[9]; Severe acute respiratory syndrome coronavirus 2, Vero C1008, beta, 0.01 uM, Vero E6, replicates",0%
same,inhibition at 0.1 µM,"[9]; Severe acute respiratory syndrome coronavirus 2, Vero C1008, beta, 0.1 uM, Vero E6, replicates",0%
same,inhibition at 0.25 µM,"[9]; Severe acute respiratory syndrome coronavirus 2, Vero C1008, beta, 0.25 uM, Vero E6, replicates",0%
same,inhibition at 0.5 µM,"[9]; Severe acute respiratory syndrome coronavirus 2, Vero C1008, beta, 0.5 uM, Vero E6, replicates",0%
same,inhibition at 1 µM,"[9]; Severe acute respiratory syndrome coronavirus 2, Vero C1008, beta, 1 uM, Vero E6, replicates",21.8%
same,inhibition at 2 µM,"[9]; Severe acute respiratory syndrome coronavirus 2, Vero C1008, beta, 2 uM, Vero E6, replicates",85.3%
same,inhibition at 5 µM,"[9]; Severe acute respiratory syndrome coronavirus 2, Vero C1008, beta, 5 uM, Vero E6, replicates",99.5%
same,inhibition at 10 µM,"[9]; Severe acute respiratory syndrome coronavirus 2, Vero C1008, beta, 10 uM, Vero E6, replicates",99.9%
same,inhibition at 50 µM,"[9]; Severe acute respiratory syndrome coronavirus 2, Vero C1008, beta, 50 uM, Vero E6, replicates",99.9%
same,EC90,"[9]; Severe acute respiratory syndrome coronavirus 2, Vero C1008, read-out: EC90 (Confidence 95%), Vero-E6, Beta B.1.351",2320 nM
same,% Inhibition,"[9]; 1 uM, Vero E6, replicates",23.8494%
same,% Inhibition,"[9]; 2 uM, Vero E6, replicates",80.342%
same,% Inhibition,"[9]; 5 uM, Vero E6, replicates",99.4744%
same,% Inhibition,"[9]; 10 uM, Vero E6, replicates",99.9464%
same,% Inhibition,"[9]; 50 uM, Vero E6, replicates",99.9252%
same,EC50,[9],1350 nM
